Assay results as given in article PMC11249646, “Small-Molecule Disruptors of the Interaction between Calcium- and Integrin-Binding Protein 1 and Integrin αIIbβ3 as Novel Antiplatelet Agents” (ACS Pharmacology & Translational Science, 2024).
pIC50: −log10 of the molar value. Like-named read-outs stand apart in the source and are kept apart here.

Key:
[1] = biological target: T1, CIB1 and αIIb interaction (CIB1-GST : F-αIIb peptide) (Homo sapiens, UniProt Q99828); experiment: FP assay, 1536-well qHTS format (primary and confirmatory screen); assay type: binding; conditions: for Curve Class (confirmatory screen) / CONFIRMATORY SCREEN Curve Class: qHTS curve class; for IC50: read-out: IC50 [μM] (confirmatory screen)
T1 construct: made in house; host or cells: BL-21 plus RIL cells (E. coli)
T1 sequence (Q99828 1-191): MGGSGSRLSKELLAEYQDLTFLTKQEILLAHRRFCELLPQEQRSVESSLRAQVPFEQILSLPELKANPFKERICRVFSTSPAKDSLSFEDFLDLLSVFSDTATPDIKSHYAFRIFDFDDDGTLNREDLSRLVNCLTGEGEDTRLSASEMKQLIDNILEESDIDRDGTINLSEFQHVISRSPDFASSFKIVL

[2] = biological target: T2, GST-CIB1 : F-scrambled peptide (Homo sapiens, UniProt Q99828); experiment: FP scrambled-peptide counter screen, 1536-well format; assay type: binding; conditions: for Curve Class (counterscreen) / COUNTERSCREEN Curve Class: qHTS curve class; for IC50: read-out: IC50 [μM] (counterscreen)
T2 construct: made in house; host or cells: BL-21 plus RIL cells (E. coli)
T2 sequence (Q99828 1-191): T1 sequence (Q99828 1-191)

[3] = Table S3, confirmatory screen, a negative sign marks inhibitory curves
[4] = Table S3, confirmatory screen, negative = inhibition
[5] = qHTS primary screen hits, Table S2, negative = inhibition
[6] = qHTS primary screen hits, Table S2, negative sign = inhibitory curve
[7] = qHTS primary screen hits, Table S2, read-out: IC50
[8] = Table S3, counterscreen, YES/NO call
[9] = Table S3, counterscreen, a negative sign marks inhibitory curves
[10] = Table S3, counterscreen, negative = inhibition
[11] = confirmatory screen, negative sign = inhibitory curve
[12] = qHTS primary screen hits, Table S2, negative sign = inhibitory curve, several classes where COUNT > 1
[13] = counterscreen, negative sign = inhibitory curve
[14] = confirmatory screen, YES/NO call
[15] = confirmatory screen, negative = inhibition
[16] = confirmatory screen, read-out: CONFIRMATORY SCREEN IC50
[17] = qHTS FP screen hits, Table S2, negative = inhibition
[18] = qHTS FP screen hits, Table S2, read-out: IC50
[19] = scrambled-peptide counterscreen
[20] = scrambled-peptide counterscreen, YES/NO call
[21] = qHTS FP screen hits, Table S2, one class per curve where COUNT > 1, negative sign = inhibitory curve

| SMILES | Curve Class (confirmatory screen) [1, 3] | Efficacy (%) (confirmatory screen) [1, 4] | Efficacy (%) [1, 5] [%] | pIC50 [1, 7] | Curve Class (counterscreen) [2, 9] | Efficacy (%) (counterscreen) [2, 10] | IC50 ([2]; Table S3, counterscreen) [µM] | Curve Class [1, 12] | Efficacy (%) [1, 17] [%] | pIC50 [1, 18] | further results |
| --- | --- | --- | --- | --- | --- | --- | --- | --- | --- | --- | --- |
| CC(C)c1nc(Nc2nc3ccccc3o2)nc2c1CCCC2.O=C(O)C(F)(F)F [NCGC00188040-01] | 4 | -29 | -19 | 5.20 | -2.4 | -36 | 22.4 |  |  |  | Curve Class [1, 6]: -1.4; Confirm? (counterscreen) [2, 8]: YES |
| CSc1cc2c(s1)c1cnn(Cc3cccc(N)c3)c(=O)c1n2C.O=C(O)C(F)(F)F [NCGC00188341-01] |  |  | -65 | 4.70 |  |  |  | -1.2 |  |  | Efficacy (%) (confirmatory screen) ([1]; confirmatory screen): -133%; Confirm? (confirmatory screen) ([1]; confirmatory screen, YES/NO): YES; Curve Class (confirmatory screen) [1, 11]: -2.1; IC50 ([1]; confirmatory screen): 39.8 µM; Efficacy (%) (counterscreen) ([2]; counterscreen): 0%; Confirm? (counterscreen) ([2]; counterscreen, YES/NO): YES; Curve Class (counterscreen) [2, 13]: 4 |
| Cc1ccc(C(=O)NC(c2ccco2)c2cc(Cl)c3cccnc3c2O)cc1 (centres unmarked) [NCGC00188372-01] | 4 | -11 | -23 | 4.50 |  | 42 | 89.1 |  |  |  | Curve Class [1, 6]: -1.4 |
| O=C(NC(c1ccco1)c1cc(Cl)c2cccnc2c1O)c1cccs1.O=C(O)C(F)(F)F (centres unmarked) [NCGC00188375-01] | 4 | 0 | -35 | 4.60 |  | 81 | 50.1 | -1.2 |  |  |  |
| O=C(Cc1ccccc1)NC(c1ccco1)c1cc(Cl)c2cccnc2c1O.O=C(O)C(F)(F)F (centres unmarked) [NCGC00188377-01] | 4 | -25 | -35 | 4.40 | 3 | 61 | 89.1 | -2.2 |  |  |  |
| CS(=O)(=O)c1ccc(C(=O)OCC(=O)N2CCN(CCC3CCCCC3)CC2)cc1[N+](=O)[O-].O=C(O)C(F)(F)F [NCGC00188531-01] | -3 | -49 | -26 | 6.05 | -2.2 | -50 | 39.8 | -1.4 |  |  | Confirm? (confirmatory screen) ([1]; Table S3, confirmatory screen, YES/NO call): YES; IC50 ([1]; Table S3, confirmatory screen): 39.8 µM |
| CCCC1CCN(C(=O)COC(=O)c2ccc(S(C)(=O)=O)c([N+](=O)[O-])c2)CC1 [NCGC00188533-01] |  |  |  |  |  |  |  |  | -25 | 5.89 | CONFIRMATORY SCREEN Confirm? [1, 14]: YES; CONFIRMATORY SCREEN Curve Class [1, 11]: -1.4; CONFIRMATORY SCREEN Efficacy (%) [1, 15]: -28%; pIC50 [1, 16]: 5.60; COUNTERSCREEN Efficacy (%) [2, 19]: -28%; COUNTERSCREEN Confirm? [2, 20]: YES; COUNTERSCREEN Curve Class [2, 19]: 4 |
| CC(OC(=O)c1ccc(S(C)(=O)=O)c([N+](=O)[O-])c1)C(=O)NC1C2CC3CC(C2)CC1C3 (centres unmarked) [NCGC00188535-01] |  |  | -30 | 5.74 |  |  |  | -1.2 |  |  | CONFIRMATORY SCREEN Efficacy (%) ([1]; confirmatory screen): -32%; CONFIRMATORY SCREEN Curve Class ([1]; confirmatory screen): 4; COUNTERSCREEN Efficacy (%) ([2]; counterscreen): -20%; COUNTERSCREEN Curve Class ([2]; counterscreen): 4 |
| CCC(OC(=O)c1ccc(S(C)(=O)=O)c([N+](=O)[O-])c1)C(=O)NC1C2CC3CC(C2)CC1C3 (centres unmarked) [NCGC00188536-01] |  |  | -27 | 5.85 |  |  |  | -1.4 |  |  | CONFIRMATORY SCREEN Confirm? [1, 14]: YES; CONFIRMATORY SCREEN Curve Class [1, 11]: -1.4; CONFIRMATORY SCREEN Efficacy (%) [1, 15]: -52%; pIC50 [1, 16]: 5.60; COUNTERSCREEN Efficacy (%) [2, 19]: -50%; COUNTERSCREEN Confirm? [2, 20]: YES; COUNTERSCREEN Curve Class [2, 19]: -2.2; pIC50 ([2]; scrambled-peptide counterscreen, read-out: COUNTERSCREEN IC50): 4.50 |
| CS(=O)(=O)c1ccc(C(=O)OCC(=O)N2CCC(Cc3ccccc3)CC2)cc1[N+](=O)[O-] [NCGC00188541-01] |  |  |  |  |  |  |  |  | -25 | 6.15 | CONFIRMATORY SCREEN Efficacy (%) ([1]; confirmatory screen): -18%; CONFIRMATORY SCREEN Curve Class ([1]; confirmatory screen): 4; COUNTERSCREEN Efficacy (%) ([2]; counterscreen): -22%; COUNTERSCREEN Curve Class ([2]; counterscreen): 4 |
| O=C(O)C(F)(F)F.O=C1CCCC2=C1C1(CCCOC1)N=C(Nc1nc3ccccc3o1)N2 (centres unmarked) [NCGC00188575-01] |  |  | -34 | 4.55 |  |  |  | -2.2 |  |  | CONFIRMATORY SCREEN Efficacy (%) ([1]; confirmatory screen): -18%; CONFIRMATORY SCREEN Curve Class ([1]; confirmatory screen): 4; COUNTERSCREEN Efficacy (%) ([2]; counterscreen): -21%; COUNTERSCREEN Curve Class ([2]; counterscreen): 4 |
| Cn1c(NC2=NC3(CCCC3)C3=C(CCCC3=O)N2)nc2ccccc21.O=C(O)C(F)(F)F [NCGC00188583-01] |  |  |  |  |  |  |  |  | -27 | 5.15 | Efficacy (%) (confirmatory screen) ([1]; confirmatory screen): -31%; Confirm? (confirmatory screen) ([1]; confirmatory screen, YES/NO): YES; Curve Class (confirmatory screen) [1, 11]: -2.4; IC50 ([1]; confirmatory screen): 89.1 µM; Efficacy (%) (counterscreen) ([2]; counterscreen): -13%; Confirm? (counterscreen) ([2]; counterscreen, YES/NO): YES; Curve Class (counterscreen) [2, 13]: 4 |
| O=C(O)C(F)(F)F.O=C1CCCC2=C1C1(CCOCC1)N=C(Nc1nc3ccccc3o1)N2 [NCGC00188584-01] |  |  |  |  |  |  |  |  | -26 | 4.80 | CONFIRMATORY SCREEN Efficacy (%) ([1]; confirmatory screen): 0%; CONFIRMATORY SCREEN Curve Class ([1]; confirmatory screen): 4; COUNTERSCREEN Efficacy (%) ([2]; counterscreen): -16%; COUNTERSCREEN Curve Class ([2]; counterscreen): 4 |
| O=C(O)c1ccccc1SC1=NS(=O)(=O)c2ccccc21 [NCGC00188636-02] | 4 | -29 |  |  | 4 | 0 |  |  | -66 | 4.35 | Curve Class [1, 21]: -2.2 |
| O=C(O)C(F)(F)F.Oc1cccc2cc(N3CCCC3)cnc12 [NCGC00188744-01] | 4 | -14 |  |  | -1.4 | -34 | 17.8 |  | -48 | 4.55 | Curve Class [1, 21]: -2.2; Confirm? (counterscreen) [2, 8]: YES |
| CN(C)c1cnc2c(O)cccc2c1.O=C(O)C(F)(F)F [NCGC00188745-01] |  |  | -53 | 4.35 |  |  |  | -2.2 |  |  | CONFIRMATORY SCREEN Efficacy (%) ([1]; confirmatory screen): -19%; CONFIRMATORY SCREEN Curve Class ([1]; confirmatory screen): 4; COUNTERSCREEN Efficacy (%) ([2]; counterscreen): -32%; COUNTERSCREEN Curve Class ([2]; counterscreen): 4 |
| O=C(O)C(F)(F)F.Oc1cccc2cc(C3CC3)cnc12 [NCGC00188747-01] | 4 | -17 |  |  | 4 | -25 |  |  | -36 | 4.50 | Curve Class [1, 21]: -1.2 |
| O=C(O)C(F)(F)F.O=C1CCCC2=C1C(c1ccncc1)N=C(Nc1nc3ccccc3o1)N2 (centres unmarked) [NCGC00188839-01] | 4 | -25 | -44 | 4.55 | 4 | -13 |  | -2.2 |  |  |  |
| O=C(O)C(F)(F)F.O=C1CCCC2=C1C(c1ncccc1C(F)(F)F)N=C(Nc1nc3ccccc3o1)N2 (centres unmarked) [NCGC00189070-01] | 4 | -19 | -47 | 4.40 | -2.4 | -41 | 28.2 | -2.2 |  |  | Confirm? (counterscreen) [2, 8]: YES |
